7 molecules from patent US9012420B2, “Aptamer for chymase, and use thereof” (Ribomic Inc., priority 2009, dated 2015) can be followed below.

T1: LTBP-1 degradation by chymase (Homo sapiens, UniProt P23946)
T1 sequence (P23946 22-247): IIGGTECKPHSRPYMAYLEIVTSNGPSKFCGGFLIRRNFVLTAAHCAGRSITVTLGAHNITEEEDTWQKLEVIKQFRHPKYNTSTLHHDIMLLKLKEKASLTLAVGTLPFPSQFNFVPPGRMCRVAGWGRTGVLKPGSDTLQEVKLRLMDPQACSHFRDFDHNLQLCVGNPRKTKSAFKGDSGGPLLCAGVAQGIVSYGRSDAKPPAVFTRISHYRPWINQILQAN

T2: chymase (Homo sapiens, UniProt P23946)
T2 sequence (P23946 22-247): T1 sequence (P23946 22-247)

B1: 14 (nucleic acid)
chain: rGrGrGrAfCrGrGfUrArGrGrArAfUfUfCfUfCrGfUfUfCfCfUrGrAfCrArGfCrAfUfUfUrGrArGrAfUrArGrAfUfUfUrArArAfCrArArAfCrGfCrAfCrAfUrArGrArArGrArGfCrGrGfCfCrGfC
modifications: aptamer
B2: 13 (nucleic acid)
chain: rGrGrGrAfCrGrGfUrArGrGrArAfUfUfCfCrGfCrArAfCfCrAfUfCfCfCrGfUrArAfCfUrAfUrGrGfUfUrArGrAfUrArGrArGfUfUrArArArArAfCfCrAfUrArGrArArGrArGfCrGrGfCfCrGfC
modifications: aptamer
B3: 4 (nucleic acid)
chain: rGrGrGrAfCrGrGfUrArGrGrArAfUfUfCrGfUfCfCrAfUfUfCfUrAfCrArGrAfUrArGrArGrAfUrArArArGfUrArGrArAfUfUfUrArAfCrArArArAfCrAfUrArGrArArGrArGfCrGrGfCfCrGfC
modifications: aptamer

Oligonucleotides are written 5' to 3', each unit as a sugar letter and its base; * is a phosphorothioate linkage, no mark a phosphodiester; rarer units and linkages stand in square brackets, end groups in braces. Plain capitals give the bases only. r = 2'-OH (RNA); f = 2'-fluoro

The target in the first data set is T1, LTBP-1 degradation by chymase. Briefly: LTBP-1 degradation inhibitory activity, NHLF culture supernatant, Western blotting. It is filed as biochemical. Also noted: key: +: detection of a band with the same level of density as an LTBP-1 band in the control; −: absence of detection of LTBP-1 band as clear as that of the negative control. The settings on record: final nucleic acid concentration 5 μM, chymase 10 ng/mL (0.33 nM), 37° C. 1 hr; visual determination of LTBP-1 band. The method, then: A third method of evaluation employs a native substrate contained in a cell culture supernatant. Here, degradation of chymase substrate LTBP-1 is detected by Western blotting. NHLF cells (manufactured by Cambrex Bio Science) under freezing are rapidly thawed in a 37° C. water bath, and then suspended in a medium (10% FBS/F-12). After centrifugation at 1200 rpm for 5 minutes, the resulting supernatant is removed, and the cells are re-suspended in the medium. Total volume of 10 mL medium is added to the centrifuged cells, and the cell suspension is transferred to a cell culture dish and cultured at 37° C. in the presence of 5% CO2. The cells are observed morphology and proliferation status under a microscope. When the cells become confluent, the medium is replaced with a serum-free medium (0.2% BSA/F-12). Two days after replacement of the medium, the culture supernatant is collected, dispensed, and stored under freezing at −30° C.
After 40 μL of the NHLF culture supernatant, freshly thawed before use, is dispensed to a tube, 5 μL of the nucleic acid solution diluted with solution C is added thereof. For positive control, chymostatin is diluted with solution C, and this dilution is added in the same manner. For negative control, solution C alone is added. Next, 5 μL of a 100 ng/mL dilution of chymase in solution E (solution C+0.1% BSA, 0.05% sodium azide) is added. For control, a chymase-free tube is prepared. After stirring, the sample is incubated at 37° C. for 1 hour, and mixed with an equal volume of lysis buffer for electrophoresis to terminate the reaction. LTBP-1 in the sample is detected by the procedure of Western blotting described below.
The sample mixed in the lysis buffer is boiled for 3 minutes, and 10 μL of the sample is subjected to electrophoresis on 5-20% acrylamide gel. After completion of the electrophoresis, the sample is transferred onto a nitrocellulose filter, after which the filter is blocked with 5% skimmed milk, 50 mM Tris-HCl (pH 8.0), and 0.05% sodium azide. The filter is reacted with a 2 μg/mL dilution of anti-LTBP-1 monoclonal antibody in 2% BSA, PBS, and 0.05% sodium azide at room temperature overnight. […]
As determined according to LTBP-1 band density and position (molecular weight), the band from the chymase-free well serves for positive control (+), and the band from the negative control well serves for negative control (−). […]
Chymase is deeply involved in the activation of TGF-β, which is one of the important factors causing fibrosis. […] Whether the nucleic acid of the present invention has an inhibitory activity against LTBP-1 degradation by chymase was assessed by the method shown below. […]
On the technique in general: Immunoblotting shows a protein as a band on a membrane.
Take “56 (GGGUUAGAUAGAGUUAAAAACCC; 2'-fluoro at CU, RNA at AG, backbone not given here) [compound 56]”: the “inhibitory activity on LTBP-1 degradation” value is reported as “+”.

As to “58 (GGGUUGAAGAUAUUAAAGAACCC; 2'-fluoro at CU, RNA at AG, backbone not given here) [compound 58]”, the “inhibitory activity on LTBP-1 degradation” value is recorded as “−”. On the same count and under the same terms, with `CC(C)C[C@H](NC(=O)[C@@H](NC(=O)N[C@@H](Cc1ccccc1)C(=O)O)[C@@H]1CCN=C(N)N1)C(=O)N[C@H](C=O)Cc1ccccc1` [chymostatin, reference compound] the entry was “+”; with “GGGU(F)U(F)GAAGAU(F)AU(F)U(F)AAAGAAC(F)C(F)C(F) (GGGUUGAAGAUAUUAAAGAACCC; 2'-fluoro at CU, RNA at AG, backbone not given here) [SEQ ID NO: 58]”, “−”.

In a further data set the target is T2, chymase. Briefly: Surface plasmon resonance (Biacore T100), aptamer immobilized on SA chip, chymase injected as analyte. It is filed as binding. On the set-up: key: ++: a sequence that binds to chymase significantly more strongly than the negative control 40N; +: a sequence that binds to chymase equivalently compared with the negative control 40N. The settings on record: Table 1; about 1000 RU nucleic acid immobilized, chymase 0.2 μM analyte, running buffer solution A; compared with 40N. The essentials:
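Aptamer captured on streptavidin SA chip via 5′-biotin 16-nt poly dT (~1500 RU), and 20 μL of 0.2 μM chymase injected as analyte. Running buffer Solution A for SEQ ID NO: 4-20 and 22-34, Solution C for SEQ ID NO: 38-48. Random 30- or 40-nt RNA served as negative control.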
Take B1: the “Binding activity as determined using Biacore” value is listed as “++”. Same read-out and setting: for B2 the value was “++”; for B3, “++”.
